# Laboratory results published in patent publication US5576419A, “Mild solid-phase synthesis of aligned branched triple-helical peptides” (Regents of the University of Minnesota, priority 1995, dated 1996).
# Experiments:
# [1] = CD thermal transition (triple-helix melting), molar ellipticity at 225 nm; format: physicochemical; conditions: [θ] at 225 nm; for Tm (triple-helical melt): 15-85 °C, 1-5% aqueous HOAc, pH 2.4
# Experimental: Edman degradation sequence analysis was performed on an Applied Biosystems 477A Protein Sequencer/120A Analyzer for both solid-phase and "embedded" (non-covalent) sequencing as described by C. G. Fields et al., Anal. Biochem. 203, 245 (1992) and C. G. Fields et al., Peptide Res. 6, 39 (1993), which are incorporated herein by reference. Fulvene-piperidine concentrations (301 nm) and scanning UV spectra (200-320 nm) were determined with a BECKMAN DU-70 Spectrophotometer. Amino acid analyses were performed on a BECKMAN 6300 Analyzer with a sulfated polystyrene cation-exchange column (0.4 cm×25 cm). Peptides were hydrolyzed with 6N aqueous HCl at 110° C. for 18-48 h. Electrospray mass spectrometric (ES-MS) methods have been described by C. G. Fields et al., Peptide Res. 6, 39 (1993), which is incorporated herein by reference. Fast atom bombardment (FAB) MS was performed on a VG 7070E-HF with a glycerol matrix and laser desorption time-of-flight (LD-TOF) MS with both a breadboard and prototype matrix-assisted TOF mass spectrometer from Millipore Corporation (Milford, Mass.) with a sinapinic acid matrix [saturated solution of 10 mg/mL sinapinic acid dissolved in acetonitrile-H2 O (1:3) containing 0.1% TFA]. THPs were ^3 H-labeled by reductive methylation [N. Jentoft et al., J. Biol. Chem. 254, 4359 (1979)] with NaCNBH3 and [^3 H]formaldehyde, desalted over a Sephadex G-50 column (50×1.5 cm) in PBS, pH 7.4, and analyzed by size-exclusion chromatography (SEC). CD spectroscopy was performed on a Jasco 710 spectropolarimeter using a 100 or 200 μL, 0.1 mm cell. The THP concentrations (determined spectrophotometrically) in 1-5% aqueous HOAc, pH 2.4 were [THP-1]=0.16 mM, [THP-2]=0.084 mM, [THP-3]=0.068 mM, and [THP-4]=0.015 mM. Spectra were recorded by accumulating 5 scans at 0.5 nm intervals (response of 1 sec). Thermal transitions were examined by measuring the molar ellipticity ([θ]) at 225 nm from 15°-85° C.
# K1735M4 tumor cell [2] = test: Melanoma cell adhesion to peptide-coated Immulon plates; format: cell-based, mouse; conditions: for EC50: coated peptide 0.1-300 μM, cells adhered 1 h at 37 °C, one mole = three peptide chains, read-out: Half maximal melanoma cell adhesion (peptide concentration)
# Experimental: (§1) K1735M4 tumor cell adhesion and spreading assays were as described previously [M. K. Chelberg et al., J. Cell Biol. 111, 261 (1990)] with minor alterations. Peptides were dissolved in PBS and adsorbed directly onto 96-well polystyrene Immulon 1 plates (Dynatech Laboratories Inc., Chantlily, Va.) overnight at 37° C. Nonspecific binding sites were blocked with 5 mg/mL bovine serum albumin in adhesion media [Dulbecco's modified Eagle's medium containing 20 mM 4-(2-hydroxyethyl)-1-piperazineethanesulfonic acid] for 2 h at 37° C. Tumor cells were released from tissue culture flasks with 37° C. PBS containing 10 mM EDTA and washed several times with adhesion media. Cells were labeled overnight with 1 μCi/mL [^3 H]thymidine (New England Nuclear, Boston, Mass.) for adhesion assays. Cells were added to the plate wells at a density of 50,000 cells/mL in a total volume of 100 μL and adhered for 1 h at 37° C. For adhesion assays wells were washed several times with adhesion media and remaining cells lysed and radioactivity determined as described [M. K. Chelberg et al., J. Cell Biol. 111, 261 (1990)]. For spreading assays wells were fixed and stained using DiffQuik reagents (Baxter) and photographed with a Nikon MF-15 camera mounted on a Nikon Diaphot inverted microscope at 200× magnification. Cell spreading was quantitated by an Optomax System IV image analyzer equipped with a Hitachi Monitor. The efficiency of peptide adsorption to the Immulon plates was determined as described [M. K. Chelberg et al., J. Cell Biol. 111, 261 (1990)] using ^3 H- or ^125 I-labeled peptide.
# K1735M4 tumor cell [3] = test: Melanoma cell spreading on peptide-coated plates; format: cell-based, mouse; conditions: for cell areas averaged (cell spreading): [THP-2]=0.9 μM, [SSP]=2.1 μM, [GPP*]=1.4 μM
# Experimental: as §1
Substance,Tm (triple-helical melt) [1] [°C],"midpoint of low temperature transition (aggregation) ([1]; 5% aqueous HOAc, pH 2.4, shown by SEC to be aggregation) [°C]",increase in melanoma cell adhesion activity compared with the α1(IV) 1263-1277 sequence alone (K1735M4 tumor cell [2]; THP-2 versus SSP) [fold],EC50 (K1735M4 tumor cell [2]) [µM],"Cell spreading, comparison in words (K1735M4 tumor cell [3]; THP-2 versus SSP and GPP*)",cell areas averaged (cell spreading) (K1735M4 tumor cell [3]) [mm^2 /μM peptide]
(Gly-Pro-Hyp)3 -Gly-Val-Lys-Gly-Asp-Lys-Gly-Asn-Pro-Gly-Trp-Pro-Gly-Ala-Pro [THP-4],35.0,,,,,
(Gly-Pro-Hyp)8 -Gly-Glu-Phe-Tyr-Phe-Asp-Leu-Arg-Leu-Lys-Gly-Asp-Lys [THP-1],53.0,,,,,
(Gly-Pro-Hyp)8 -Gly-Val-Lys-Gly-Asp-Lys-Gly-Asn-Pro-Gly-Trp-Pro-Gly-Ala-Pro [THP-2],58.5,23.5,100,1.12,more extensive,0.048
(Gly-Pro-Hyp)8 [THP-3],42.5,,,> 100,,0.017
